In patent US8802635B2, “Antioxidant, anti-inflammatory, anti-radiation, metal chelating compounds and uses thereof” (Oneday—Biotech And Pharma Ltd., priority 2011, dated 2014):
Non-standard residues stand in square brackets, D forms with d. βAla = NCCC(=O)O

What was measured:
[1] = tested on: carrageenan-induced hind paw swelling; assay: Carrageenan-induced hind paw swelling; type: in vivo, mice; conditions: 150 mg/kg i.p. 30 min prior to carrageenan; for swelling reduction compared to control: control saline only
Method: The above new five peptides were examined for anti-inflammatory activity, and their activity was compared to that of peptide CB3. Male ICR mice received an i.p. administration of each of the tested peptide (150 mg/kg) 30 min prior to the injection of carrageenan into the sub-plantar area of both of the animal's hind paws. Carrageenan was dissolved in water at concentration of 3 mg/ml and injected at a volume of 50 μl. Hind paw thickness was measured by Mitutoyo® micrometer before carrageenan injection and afterward at intervals of 1 hour between each measurement. Swelling was calculated as the difference between the thickness of the hind paw measured at each time interval and its size at time 0 (before carrageenan injection). n=6 foot pads (3 animals) for each group.

[2] = tested on: IkappaBalpha; assay: Cytoplasmic stability of I-kappaBalpha in lung, zymosan-induced inflammation; type: in vivo, mice; conditions: lung tissue, 24 hours after zymosan
Method: Male BALB/c mice were randomly allocated into the following experimental groups:
The peptides were administered by an intraperitoneal (i.p.) route of administration as described in Example 3.
The peptides were formulated in D5W as described in Example 3. The vehicle control was D5W.
At 24 hours after administration of zymosan, animals were euthanized and assessed for inflammation by an NF-κB analysis of lung tissue.
Tissues were homogenized and nuclear extracts prepared via centrifugation. ELISA for IkappaBalpha was performed, using a series of standards in order to define absolute concentrations.

[3] = tested on: JNK (c-Jun N-terminal kinases); assay: Inhibition of oxidative stress (auranofin)-induced JNK phosphorylation in SH-SY5Y cells; type: cell-based, Human; conditions: auranofin 5 μM
Method: (§1) Human neuroblastoma SH-SY5Y cells were maintained in Dulbecco's modified Eagle's medium (DMEM, Invitrogen) supplemented with 10% fetal bovine serum (Invitrogen), 100 μg/ml streptomycin and 100 U/ml penicillin G (Gibco). Cells were plated at a density of 6.25×10^4/cm^2 and incubated for 24 hours, after which they were exposed to different treatments.
(§2) SH-SY5Y cells were plated on 96-well plates and treated with Auranofin (AuF) (5 μM) for 30 min. Then the cells were washed with PBS and treated with either one of the peptides at the indicated concentrations. Twenty-four hours later, the cells were fixed with glutaraldehyde in final concentration of 0.5% for 10 min. Cells were washed 3 times with DDW dried over night, and washed once with borate buffer (0.1M, pH 8.5). The fixed cells were stained with 200 μl of 1% methylene blue dissolved in borate buffer for 1 hour. After extensive washing and drying, the color was extracted with 200 μl of 0.1 M HCl for 1 h at 37° C. and absorbance was read in spectrophotometer at 630 nm.
(§3) Twenty to thirty micrograms of protein samples were loaded on 10-12% SDS-PAGE gels. The proteins were then transferred electrophoretically to nitrocellulose (Whatman, Germany). The blots were blocked by incubation for 1 h at room temperature (RT) in TBS-T (25 mM Tris-HCl pH 7.4, 0.9% NaCl and 0.02% Tween-20) with 4% Difco skim milk (BD, USA), and incubated over-night at 4° C. with the primary antibody: pERK1/2 (Thr 202/Tyr204), mouse mAb, (1:6,000); p-SAPK/JNK (Thr183/Tyr185), rabbit mAb; SAPK/JNK, mouse mAb; p-p38MAP Kinase (Thr180/Tyr182), rabbit mAb; cleaved caspase 3, rabbit mAb. All antibodies were from Cell Signaling Tech. USA, used at 1:1000. Purified b Catenin, mouse mAb, (1:10,000; BD Transduction Laboratories, USA) diluted in 5% BSA, 0.04% Azide in TBS-T. Proteins were detected with Anti-Mouse or Anti-Rabbit IgG-HRP linked antibody (1:10,000; Cell Signaling, Tech. USA).

[4] = tested on: p38 MAP Kinase; assay: Inhibition of oxidative stress (auranofin)-induced p38 phosphorylation in SH-SY5Y cells; type: cell-based, Human; conditions: auranofin 5 μM
Method: as §1, §2, §3

[5] = tested on: cellularity of the peritoneal exudates; assay: Ovalbumin-induced hypersensitivity (allergic peritonitis): peritoneal cellularity; type: in vivo, mice; conditions: 125 mg/kg i.p. on days 13, 14, 15
Method: (§4) Male BALB/c mice (6-8 weeks old) were housed under specific pathogen-free conditions and maintained on a 12-hour light/dark cycle, with food and water ad libitum. All materials and drugs were obtained from Sigma, Inc.
(§5) Mice in Groups A, B, C, and E (n=10 per group) were sensitized with intraperitoneal (i.p.) 200 μl of sterile PBS containing 100 μg ovalbumin (OVA) and 1.6 mg alum on days 0 and 7, and challenged with intraperitoneal (i.p.) 200 μl of sterile PBS containing 10 μg ovalbumin (OVA) on day 14 in order to induce an experimental model of allergic peritonitis. Mice in Group F (n=10) were injected with intraperitoneal (i.p) 200 μl sterile PBS (“sham” group, no OVA and no Alum).
(§6) Mice in Groups A, B, and C, were treated with 150 μl of sterile PBS containing peptides DY-66, DY-65 and DY-70, respectively, at a dose of 125 mg/kg on days 13, 14, and 15 via an i.p. route of administration.
(§7) Mice in Groups E and F were treated with 150 μl of sterile PBS on days 13, 14, and 15 via an i.p. route of administration. On day 14 the test articles (or PBS vehicle) were injected 30 minutes before injecting the OVA.

[6] = tested on: anti-OVA serum IgE; assay: Ovalbumin-induced hypersensitivity: serum anti-OVA IgE; type: in vivo, mice; conditions: for effect on OVA-induced elevation of anti-OVA serum IgE titer (in words) / rank order of reduction of anti-OVA serum IgE titer: 125 mg/kg i.p. on days 13, 14, 15, blood day 16
Method: as §4, §5, §6, §7
Blood taken on day 16 was tested for 1) serum anti-OVA IgE, 2) white blood cell count and differential (including absolute and percentage of eosinophils count). Serum was frozen at −80° C. for future optional blood tests.

[7] = tested on: HaCaT cells; assay: UVB-induced cytotoxicity in HaCaT cells (MTT); type: cell-based; conditions: UVB 0.05 J/cm^2; MTT after 72 hours
Method: HaCaT cells were seeded in 96-wells plate (10×10^4/ml) and incubated in 37° C., 6% CO2 for 24 hours. Cells were incubated with the peptides at the indicated concentrations for 2.5 hours and washed (PBS). Then 100 μl PBS were added to each well followed by UVB irradiation (0.05 J/cm^2). Cells were washed with PBS and incubated with culture medium (DMEM, 100 μl) containing the peptides. MTT assay was carried out after 72 hours.

[8] = Metal chelation: copper binding by mass spectra (ESI); conditions: 0.83 mM peptide, 1.66 mM CuSO4, 1 hour room temperature
Method: All five peptides were examined for their ability to bind copper and ferric ions. 0.83 mM of each peptide were mixed with 1.66 mM of either FeCL3 or CuSO4. The mixtures were incubated for 1 hour at room temperature and further kept at ° 4 C until analysis. Samples were analyzed by mass spectra (ESI).

For “N-acetyl-Cys-Lys-Met-Cys-NH2 (Ac-CKMC-NH2; cysteine pairing not given here) [DY-65]”, the “swelling reduction compared to control” value ([1]; after 1 hour) was 40%, the “swelling reduction compared to control” value ([1]; after 2 hours) was 27% and the “swelling reduction compared to control” value ([1]; after 3 hours) was 34%. The “rank order of efficacy on cytoplasmic IkappaBalpha” value [2] was “DY-70>DY-65>DY-66”, the IC50 [3] was 32.3 µM and the IC50 [4] was 36.7 µM. For the same substance, the “effect on OVA-induced elevation of peritoneal exudate cellularity (in words)” value [5] was “significantly reduced the elevation”, the “rank order of reduction of peritoneal exudate cellularity” value [5] was “DY-65>DY-70>DY-66” and the “effect on OVA-induced elevation of anti-OVA serum IgE titer (in words)” value [6] was “significantly reduced the elevation”. For the same substance, the “rank order of reduction of anti-OVA serum IgE titer” value [6] was “DY-65>DY-70>DY-66”, the “greatest reduction of the OVA-induced elevation of anti-OVA serum IgE” value ([6]; 125 mg/kg i.p., % of the OVA-induced elevation) was “ca. 60%” and the “protection against UVB-induced cytotoxicity (in words)” value [7] was “protective effect at low concentrations”. The “copper binding (in words)” value [8] was “binding was observed”.

In the case of “N-acetyl-Cys-βAla-His-Cys-NH2 (Ac-C[βAla]HC-NH2; cysteine pairing not given here) [DY-66]”, the “hind paw swelling compared to control (in words)” value [1] is reported as “Reduced swelling compared to control”, the “rank order of efficacy on cytoplasmic IkappaBalpha” value [2] is reported as “DY-70>DY-65>DY-66” and the IC50 [3] is reported as 86.9 µM. For the same substance, the IC50 [4] was 67 µM, the “effect on OVA-induced elevation of peritoneal exudate cellularity (in words)” value [5] was “significantly reduced the elevation” and the “rank order of reduction of peritoneal exudate cellularity” value [5] was “DY-65>DY-70>DY-66”. For the same substance, the “effect on OVA-induced elevation of anti-OVA serum IgE titer (in words)” value [6] was “significantly reduced the elevation”, the “rank order of reduction of anti-OVA serum IgE titer” value [6] was “DY-65>DY-70>DY-66” and the “protection against UVB-induced cytotoxicity (in words)” value [7] was “protective effect at low concentrations”. The “copper binding (in words)” value [8] was “low degree”.
